Source: patent US20240391931A1 (Bristol-Myers Squibb Company, priority 2021, published 2024)

Biological target: HER2YVMA (Homo sapiens, UniProt P04626, INS775YVMA)
Test: HER2 signaling (pHER2) in Hek293-HER2YVMA cells
Assay type: cell-based
Parameters: expressed in transfected cells; host or cells: HEK293 (pool), Ba/F3 (clones), BEAS2B (clones); lentiviral vector pCDH-CMV-MCS-EF1-Neo
Details: 1.5 hr compound, 1% FBS, read-out: HEKYVMA pHER2 EC50
Experimental: Cell culture, plasmid cloning, and lentiviral transduction were carried out according to standard procedures. The Human HER2 cDNA construct in pCMV6-Entry for the HER2 wildtype (WT) expression was obtained from Origene. The HER2 cDNA including the 12-nucleotide insertion corresponding to YVMA insertion (HER2YVMA) was codon optimized, synthesized and cloned by GenScript (Piscataway, NJ) in pcDNA3.1. The lentiviral constructs expressing HER2YVMA and HER2 WT were sub-cloned using PCR at System Biosciences (SBI, Mountainview, CA) into lentiviral vectors pCDH-CMV-MCS-EF1-Neo and lentiviral particles were generated.
Engineered lines expressing HER2YVMA and HER2 WT were prepared in HEK293 (human embryonic kidney cells), Ba/F3 (Interleukin 3 (IL3)-dependent murine pro B cell line), and BEAS2B (primary immortalized human bronchial epithelial cell line). Ba/F3, BEAS2B, and HEK293 cells were obtained from the American Type Culture Collection (ATCC, Manassas, VA). Parental Ba/F3 cells were grown in suspension in complete RPMI 1640 supplemented with 10% FBS and 1% P/S and 10 ng/ml interleukin 3 (IL3, Sigma-Aldrich). Hek293 and BEAS2B cells were grown as monolayers in DMEM supplemented with 10% FBS and 1% P/S. All cells were maintained and propagated in a humidified 5% CO2 incubator at 37° C.
To generate Ba/F3, BEAS2B, and Hek-293 cells engineered with lentivirus to express HER2 WT or HER2YVMA, the cells were transduced with lentiviruses at multiplicity of infection (MOI) of 1 or 10; transduced cells were selected and maintained with G418 ([…]) (Geneticin, Life Technologies, Carlsbad, CA). Ba/F3 engineered cells were subjected to gradual withdrawal of interleukin 3 (IL-3, Sigma-Aldrich). After selection, IL3 independent Ba/F3 HER2YVMA, and BEAS2B HER2YVMA cells were cloned by limiting dilution. Hek293 HER2YVMA cells were used as pool. HER2 and phospho HER2 levels were confirmed by flow cytometery and immunoassay (MSD, Meso-Scale Discovery, Rockville, Maryland).
HER2 signaling was assessed in BT474 and N87 cell lines which endogenously overexpress the HER2 wildtype (WT) protein, in NCI-H1781 cells which endogenously expresses a HER2 mutant protein containing a VC insertion in the kinase domain (HER2VC or G776delinsVC), and in engineered cell lines transduced to express the Her2 mutant protein containing the YVMA insertion (Hek293-HER2YVMA and BEAS2B-HER2YVMA).
BT474, N87, and NCI-H1781 were plated in 96-well tissue-culture treated plates (Corning Costar, Sigma-Aldrich) in full media and incubated overnight. Hek293-HER2YVMA and BEAS2B-HER2YVMA cells were plated in 96-well poly-D-lysine treated plates (BD Bioscience, San Jose, CA). For treatment with test compounds, the media was replaced with corresponding low serum media (1% FBS) containing test compound at 1.1, 0.37, 0.12, 0.041, 0.014, 0.005, 0.0014, 0.0005 μM or DMSO control (0.1%). Cells were incubated with compound for 1.5 hr at 37° C. After compound treatment, the media was removed and cells were lysed for 30 min on ice in complete MSD lysis buffer (prepared using MSD base lysis buffer (Meso-Scale Discovery) supplemented with cOmplete, EDTA-free Protease inhibitor cocktail (Roche), Phosphatase Inhibitor Cocktails 2 and 3 (Sigma-Aldrich), and 1 mM PMSF (Sigma-Aldrich)). Lysates were stored at −70° C. until further analysis.
HER2 signaling was evaluated using phospho (Tyr1248)/total ErbB2 whole cell lysate MSD plates (Meso-Scale Discovery, Gaithersburg, MD). The phospho HER2 signal was normalized to total HER2 for each sample; results are reported as % DMSO control. The normalized data was fitted using a sigmoidal curve analysis program (Graph Pad Prism version 6) with variable Hill slope to determine EC50 values.
The HER2 signaling results are provided in Table 4, under columns titled “BT474-pHER2 EC50”, “N87-pHER2 EC50”, and “NCI-H1781-pHER2 EC50”. […]

Chain of HER2YVMA (P04626 with tags, fused parts or gaps INS775YVMA): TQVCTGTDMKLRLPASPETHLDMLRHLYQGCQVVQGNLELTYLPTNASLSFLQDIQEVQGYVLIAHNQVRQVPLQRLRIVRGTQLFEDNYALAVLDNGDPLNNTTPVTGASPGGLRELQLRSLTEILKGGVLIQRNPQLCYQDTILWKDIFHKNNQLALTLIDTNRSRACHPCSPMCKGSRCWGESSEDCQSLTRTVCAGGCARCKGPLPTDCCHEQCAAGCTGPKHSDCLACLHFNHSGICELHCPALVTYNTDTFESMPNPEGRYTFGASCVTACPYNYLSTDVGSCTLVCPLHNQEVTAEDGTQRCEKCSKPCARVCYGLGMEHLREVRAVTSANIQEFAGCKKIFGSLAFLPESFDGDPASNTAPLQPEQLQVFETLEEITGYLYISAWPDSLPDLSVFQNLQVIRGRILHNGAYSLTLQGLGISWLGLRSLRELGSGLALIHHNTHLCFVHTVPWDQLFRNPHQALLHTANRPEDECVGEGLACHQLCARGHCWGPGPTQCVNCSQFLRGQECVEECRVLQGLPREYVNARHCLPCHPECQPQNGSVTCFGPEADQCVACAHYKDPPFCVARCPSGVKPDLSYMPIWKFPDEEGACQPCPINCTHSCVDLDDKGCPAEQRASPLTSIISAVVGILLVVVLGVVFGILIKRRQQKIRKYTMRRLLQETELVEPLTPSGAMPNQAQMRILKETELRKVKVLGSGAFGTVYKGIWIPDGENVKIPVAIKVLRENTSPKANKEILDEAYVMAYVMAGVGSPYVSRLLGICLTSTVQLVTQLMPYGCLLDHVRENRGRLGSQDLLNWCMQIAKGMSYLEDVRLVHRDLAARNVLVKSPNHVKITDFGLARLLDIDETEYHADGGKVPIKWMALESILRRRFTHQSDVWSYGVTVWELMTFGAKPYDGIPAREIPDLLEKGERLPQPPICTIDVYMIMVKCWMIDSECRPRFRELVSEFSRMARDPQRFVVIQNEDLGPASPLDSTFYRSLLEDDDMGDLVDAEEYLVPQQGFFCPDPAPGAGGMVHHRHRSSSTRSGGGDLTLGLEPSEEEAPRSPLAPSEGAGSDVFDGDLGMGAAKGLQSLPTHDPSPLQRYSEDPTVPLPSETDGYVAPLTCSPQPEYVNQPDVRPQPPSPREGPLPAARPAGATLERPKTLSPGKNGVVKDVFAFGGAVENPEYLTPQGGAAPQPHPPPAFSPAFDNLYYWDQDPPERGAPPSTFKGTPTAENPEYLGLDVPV

SMILES: Cc1cc(Nc2ncnc3sc4c(c23)CCN(C(=O)/C=C/CN(C)C)C4)ccc1Oc1ccc2scnc2c1 [Compound 107, (E)-1-(4-((4-(benzo[d]thiazol-5-yloxy)-3-methylphenyl)amino)-5,8-dihydropyrido[4′,3′:4,5]thieno[2,3-d]pyrimidin-7(6H)-yl)-4-(dimethylamino)but-2-en-1-one]
- EC50: < 0.1 µM

SMILES: Cc1ccc(Oc2ccc(Nc3ncnc4sc5c(c34)CN(C(=O)/C=C/CN(C)C)CC5)cc2C)cn1 [Compound 108, (E)-4-(Dimethylamino)-1-(4-((3-methyl-4-((6-methylpyridin-3-yl)oxy)phenyl)amino)-7,8-dihydropyrido[3′,4′:4,5]thieno[2,3-d]pyrimidin-6(5H)-yl)but-2-en-1-one]
- EC50: < 0.1 µM

SMILES: Cc1cc(Nc2ncnc3sc4c(c23)CCN(C(=O)/C=C/CN(C)C)C4)ccc1Oc1ccc2nccn2c1 [Compound 109, (E)-4-(dimethylamino)-1-(4-((4-(imidazo[1,2-a]pyridin-6-yloxy)-3-methylphenyl)amino)-5,6-dihydropyrido[4′,3′:4,5]thieno[2,3-d]pyrimidin-7(8H)-yl)but-2-en-1-one]
- EC50: < 0.1 µM

SMILES: Cc1cn2ccc(Oc3ccc(Nc4ncnc5sc6c(c45)CCN(C(=O)/C=C/CN(C)C)C6)cc3C)cc2n1 [Compound 110, (E)-4-(dimethylamino)-1-(4-((3-methyl-4-((2-methylimidazo[1,2-a]pyridin-7-yl)oxy)phenyl)amino)-5,8-dihydropyrido[4′,3′:4,5]thieno[2,3-d]pyrimidin-7(6H)-yl)but-2-en-1-one]
- EC50: 0.1 to 0.35 µM

SMILES: Cc1cc(Nc2ncnc3sc4c(c23)CN(C(=O)/C=C/CN(C)C)C4)ccc1Oc1ccc2ncnn2c1 [Compound 111, (E)-1-(4-((4-([1,2,4]Triazolo[1,5-a]pyridin-6-yloxy)-3-methylphenyl)amino)-5H-pyrrolo[3′,4′:4,5]thieno[2,3-d]pyrimidin-6(7H)-yl)-4-(dimethylamino)but-2-en-1-one]
- EC50: 0.1 to 0.35 µM

SMILES: Cc1ccc(Oc2ccc(Nc3ncnc4sc5c(c34)CCN(C(=O)/C=C/CN3CCC[C@H](n4cccn4)C3)C5)cc2C)cn1 [Compound 112]
- EC50: < 0.1 µM

SMILES: Cc1ccc(Oc2ccc(Nc3ncnc4sc5c(c34)CCN(C(=O)/C=C/CN3CCCC(c4nccs4)C3)C5)cc2C)cn1 (centres unmarked) [Compound 113]
- EC50: < 0.1 µM

SMILES: Cc1ccc(Oc2ccc(Nc3ncnc4sc5c(c34)CCN(C(=O)/C=C/CN3CCC(O)C(C)(C)C3)C5)cc2C)cn1 (centres unmarked) [Compound 114]
- EC50: < 0.1 µM

SMILES: Cc1ccc(Oc2ccc(Nc3ncnc4sc5c(c34)CCN(C(=O)/C=C/CN3CCCC34CCC4)C5)cc2C)cn1 [Compound 115]
- EC50: < 0.1 µM

SMILES: Cc1ccc(Oc2ccc(Nc3ncnc4sc5c(c34)CCN(C(=O)/C=C/CN3CC(C)OC(C)C3C)C5)cc2C)cn1 (centres unmarked) [Compound 117]
- EC50: < 0.1 µM

SMILES: Cc1ccc(Oc2ccc(Nc3ncnc4sc5c(c34)CCN(C(=O)/C=C/CN3CC4CC4(CO)C3)C5)cc2C)cn1 (centres unmarked) [Compound 118]
- EC50: < 0.1 µM

SMILES: Cc1ccc(Oc2ccc(Nc3ncnc4sc5c(c34)CCN(C(=O)/C=C/CN3CCCCC3(C)CO)C5)cc2C)cn1 (centres unmarked) [Compound 119]
- EC50: < 0.1 µM

SMILES: Cc1ccc(Oc2ccc(Nc3ncnc4sc5c(c34)CCN(C(=O)/C=C/CN3C[C@H]4C[C@@H]3CC4C#N)C5)cc2C)cn1 (some centres unmarked) [Compound 120]
- EC50: < 0.1 µM

SMILES: Cc1ccc(Oc2ccc(Nc3ncnc4sc5c(c34)CCN(C(=O)/C=C/CN3CC(C)(C)OC(C)(C)C3)C5)cc2C)cn1 [Compound 121]
- EC50: < 0.1 µM

SMILES: CC[C@H](NC/C=C/C(=O)N1CCc2c(sc3ncnc(Nc4ccc(Oc5ccc(C)nc5)c(C)c4)c23)C1)C(F)(F)F [Compound 122]
- EC50: < 0.1 µM

SMILES: Cc1ccc(Oc2ccc(Nc3ncnc4sc5c(c34)CCN(C(=O)/C=C/CN3CC4(CCCC4)C3)C5)cc2C)cn1 [Compound 123]
- EC50: < 0.1 µM

SMILES: Cc1ccc(Oc2ccc(Nc3ncnc4sc5c(c34)CCN(C(=O)/C=C/CN3CC[C@H](F)C3)C5)cc2C)cn1 [Compound 124]
- EC50: < 0.1 µM

SMILES: Cc1cc(Nc2ncnc3sc4c(c23)CCN(C(=O)/C=C/CN(C)C)C4)ccc1Oc1ccn2ccnc2c1 [Compound 126, (E)-4-(dimethylamino)-1-(4-((4-(imidazo[1,2-a]pyridin-7-yloxy)-3-methylphenyl)amino)-5,8-dihydropyrido[4′,3′:4,5]thieno[2,3-d]pyrimidin-7(6H)-yl)but-2-en-1-one]
- EC50: < 0.1 µM

SMILES: Cc1nc2cc(Oc3ccc(Nc4ncnc5sc6c(c45)CCN(C(=O)/C=C/CN(C)C)C6)cc3C)ccn2n1 [Compound 127, (E)-4-(dimethylamino)-1-(4-((3-methyl-4-((2-methyl-[1,2,4]triazolo[1,5-a]pyridin-7-yl)oxy)phenyl)amino)-5,6-dihydropyrido[4′,3′:4,5]thieno[2,3-d]pyrimidin-7(8H)-yl)but-2-en-1-one]
- EC50: < 0.1 µM

SMILES: COc1ccc(Oc2ccc(Nc3ncnc4sc5c(c34)CN(C(=O)/C=C/CN(C)C)C5)cc2C)cn1 [Compound 128, (E)-4-(dimethylamino)-1-(4-((4-((6-methoxypyridin-3-yl)oxy)-3-methylphenyl)amino)-5,7-dihydro-6H-pyrrolo[3′,4′:4,5]thieno[2,3-d]pyrimidin-6-yl)but-2-en-1-one]
- EC50: < 0.1 µM

SMILES: Cc1ccc(Oc2ccc(Nc3ncnc4sc5c(c34)CN(C(=O)/C=C/CN(C)C)C5)cc2Cl)cn1 [Compound 129, (E)-1-(4-((3-Chloro-4-((6-methylpyridin-3-yl)oxy)phenyl)amino)-5H-pyrrolo[3′,4′:4,5]thieno[2,3-d]pyrimidin-6(7H)-yl)-4-(dimethylamino)but-2-en-1-one]
- EC50: < 0.1 µM

SMILES: Cc1cc(Nc2ncnc3sc4c(c23)CN(C(=O)/C=C/CN(C)C)C4)ccc1Oc1ccn2ncnc2c1 [Compound 130, (E)-1-(4-((4-([1,2,4]Triazolo[1,5-a]pyridin-7-yloxy)-3-methylphenyl)amino)-5H-pyrrolo[3′,4′:4,5]thieno[2,3-d]pyrimidin-6(7H)-yl)-4-(dimethylamino)but-2-en-1-one]
- EC50: < 0.1 µM

SMILES: CCN(CC)C/C=C/C(=O)N1CCc2c(sc3ncnc(Nc4ccc(Oc5ccc(C)nc5)c(C)c4)c23)C1 [Compound 131]
- EC50: < 0.1 µM

SMILES: Cc1ccc(Oc2ccc(Nc3ncnc4sc5c(c34)CCN(C(=O)/C=C/CN3CC[C@@H](CO)C3)C5)cc2C)cn1 [Compound 132]
- EC50: < 0.1 µM

SMILES: Cc1ccc(Oc2ccc(Nc3ncnc4sc5c(c34)CCN(C(=O)/C=C/CN3CC[C@H](CO)C3)C5)cc2C)cn1 [Compound 133]
- EC50: < 0.1 µM

SMILES: Cc1ccc(Oc2ccc(Nc3ncnc4sc5c(c34)CCN(C(=O)/C=C/CN3CC(CO)(CO)C3)C5)cc2C)cn1 [Compound 134]
- EC50: 0.1 to 0.35 µM

SMILES: Cc1ccc(Oc2ccc(Nc3ncnc4sc5c(c34)CCN(C(=O)/C=C/CN3CCC(CO)(CO)CC3)C5)cc2C)cn1 [Compound 135]
- EC50: 0.1 to 0.35 µM

SMILES: Cc1ccc(Oc2ccc(Nc3ncnc4sc5c(c34)CCN(C(=O)/C=C/CN3CCO[C@H](CO)C3)C5)cc2C)cn1 [Compound 136]
- EC50: < 0.1 µM

SMILES: CCN(CC)C/C=C/C(=O)N1CCc2c(sc3ncnc(Nc4ccc(Oc5ccc(OC)nc5)c(C)c4)c23)C1 [Compound 137]
- EC50: < 0.1 µM
